Test results published in patent US4578489A (priority 1982, dated 1986).
Where two headings read alike, the source gives them in different places.

How the values were obtained:
[1] = system: Proteus vulgaris; assay: Minimum inhibitory concentration against bacteria, strain A; format: cell-based; conditions: 24 hours at 30° C.; tested at 100 and 300 mg/liter
Procedure: (§1) Overnight cultures, grown in Caso peptone bouillon (Merck) of the various strains of bacteria: (A) Proteus vulgaris, (B) Pseudomonas aeruginosa, (C) Enterobacter aerogenes, (D) Serratia marcencens, (E) Alcaligenes denitrificans and (F) Bacillus subtilis are each diluted in a ratio of 1/1000 in saline solution. Sufficient of the suspensions is put into Caso peptone bouillon to dilute the bacteria again in the ratio of 1/1000. Each of the compounds listed in Table 1 is then added in amounts of 100 and 300 mg/liter. After being incubated for 24 hours at 30° C. in a shaking waterbath, the turbidity of the samples is evaluated.

[2] = system: Pseudomonas aeruginosa; assay: Minimum inhibitory concentration against bacteria, strain B; format: cell-based; conditions: 24 hours at 30° C.; tested at 100 and 300 mg/liter
Procedure: as §1

[3] = system: Enterobacter aerogenes; assay: Minimum inhibitory concentration against bacteria, strain C; format: cell-based; conditions: 24 hours at 30° C.; tested at 100 and 300 mg/liter
Procedure: as §1

[4] = system: Serratia marcencens; assay: Minimum inhibitory concentration against bacteria, strain D; format: cell-based; conditions: 24 hours at 30° C.; tested at 100 and 300 mg/liter
Procedure: as §1

[5] = system: Alcaligenes denitrificans; assay: Minimum inhibitory concentration against bacteria, strain E; format: cell-based; conditions: 24 hours at 30° C.; tested at 100 and 300 mg/liter
Procedure: as §1

[6] = system: Bacillus subtilis; assay: Minimum inhibitory concentration against bacteria, strain F; format: cell-based; conditions: 24 hours at 30° C.; tested at 100 and 300 mg/liter
Procedure: as §1

[7] = system: mixed culture of bacteria; format: cell-based; parameters: key: +: growth, no destruction; (+): growth less than that of control (>10 colonies), slight destruction; (-): slight growth (1-10 colonies); -: no growth, destruction
[8] = system: Aspergillus niger; assay: Minimum inhibitory concentration against fungi, agar incorporation test, strain K; format: cell-based; conditions: malt extract/agar
Procedure: (§2) The invention is carried out using the known agar incorporation test in the following fungi:
(§3) in a malt extract/agar (Merck). Inhibition is effected by adding sufficient of each of the various compounds to give final concentrations in the agar of 2, 5, 10, 50 and 100 mg/liter. The concentrations (mg/liters) required to inhibit the growth of the fungi (starting from traces of fungi added dropwise) are illustrated in Table 3.

[9] = system: Aspergillus phoenicis; assay: Minimum inhibitory concentration against fungi, agar incorporation test, strain L; format: cell-based; conditions: malt extract/agar
Procedure: as §2
(L) Aspergillus phoenicis
as §3

[10] = system: Penicillium funiculosum; assay: Minimum inhibitory concentration against fungi, agar incorporation test, strain M; format: cell-based; conditions: malt extract/agar
Procedure: as §2
(M) Penicillium funiculosum
as §3

[11] = system: Alternaria alternata; assay: Minimum inhibitory concentration against fungi, agar incorporation test, strain N; format: cell-based; conditions: malt extract/agar
Procedure: as §2, §3

[12] = system: Cladosporium cladosporioides; assay: Minimum inhibitory concentration against fungi, agar incorporation test, strain O; format: cell-based; conditions: malt extract/agar
Procedure: as §2
(O) Cladosporium cladosporioides
as §3

[13] = system: Candida albicans; assay: Minimum inhibitory concentration against fungi, agar incorporation test, strain P; format: cell-based; conditions: malt extract/agar
Procedure: as §2, §3

[14] = system: Endomyces geotrichum; assay: Minimum inhibitory concentration against fungi, agar incorporation test, strain Q; format: cell-based; conditions: malt extract/agar
Procedure: as §2, §3

[15] = system: Aureobasidium pullulans; assay: Minimum inhibitory concentration against fungi, agar incorporation test, strain R; format: cell-based; conditions: malt extract/agar
Procedure: as §2
(R) Aureobasidium pullulans
as §3

[16] = system: Chaetomium globosum; assay: Minimum inhibitory concentration against fungi, agar incorporation test, strain S; format: cell-based; conditions: malt extract/agar
Procedure: as §2, §3

[17] = system: Chlorella vulgaris; assay: Action against algae: Chlorella vulgaris; format: cell-based; parameters: key: --: no growth on the agar, 3 ppm have destroyed the algae in 6 hours; conditions: 3 mg/liter; for Growth on the agar (algae-destroying action): 6 hours exposure, 14 days incubation; for Growth in the medium (growth inhibition): 14 days
Procedure: Cultures of Chlorella vulgaris which had been grown for 14 days in algae nutrient media are diluted in the ratio 1/200 in the algae nutrient medium. Each of the compounds listed in Table 1 is then added in such an amount as to give a final concentration of 3 mg/liter. After incubating for 6 hours, 10 μl of each culture are withdrawn and added dropwise to algae/agar in order to determine the destructive action. After the cultures have incubated for 14 days under illumination (14 hours of light and 10 hours of darkness, alternately), the growth in the algae medium (determination of growth inhibition) and on the algae/agar (determination of algae-destroying action) is assessed visually.

[18] = system: Enteromorpha intestinalis; assay: Action against Enteromorpha intestinalis: destruction (minimum killing concentration); format: in vivo; conditions: 4 hours in seawater, then 6-8 weeks in fresh seawater
Procedure: (§4) The action against the green alga Enteromorpha, which is the most important in seawter fouling, is investigated in sterile-filtered seawater containing an Erd-Schreiber solution. This solution is composed of a nutrient extract, phosphate and nitrate. The incubation of Enteromorpha intestinalis is carried out in a light thermostat at 18° C. under an alternation of 14 hours of light and 10 hours of darkness.
The algae which have been cultured in this way are exposed to the products under investigation for a short time (4 hours) in seawater. The minimum killing concentration (MKC) is determined by taking the algae out of the seawater containing a specific quantity of algicide, after the treatment time in the latter, washing the algae and investigating growth or mortality after incubation in fresh seawater for a further period of 6-8 weeks.
The minimum killing concentration (MKC) indicates the amount of substance required to cause such damage to the algae within a specific time that they can no longer recover in fresh seawater and die out.

[19] = system: Enteromorpha intestinalis; assay: Action against Enteromorpha intestinalis: inhibitory concentration (MIC); format: in vivo; conditions: seawater containing biocide for entire test; concentration tested 0.5 mg/liter
Procedure: as §4
For determining the inhibitory concentration (MIC), the algae are kept in seawater containing biocide for the entire duration of the test (concentration tested: 0.5 mg/liter).

[20] = system: Artemia salina; assay: Action against Artemia salina nauplii; format: in vivo; parameters: key: 0: no change; 1: slight change; 1-2: animals are attacked; 2: animals are strongly attacked; 2-3: animals are nearly all dead; 3: animals are all dead
Procedure: The eggs, which are available commercially, are caused to hatch by vigorous aeration. When 2-3 days old, the nauplii are exposed to the products at various concentrations (concentrations tested: 2.5; 1; 0.5 and 0.25 mg/liter) in synthetic seawater, and are observed over a prolonged period of time.

[21] = 5 mg/l, culture diluted 1/1000 in Tyrode
[22] = 5 mg/l, culture diluted 1/10000 in Tyrode
[23] = 10 mg/l, culture diluted 1/1000 in Tyrode
[24] = 10 mg/l, culture diluted 1/10000 in Tyrode
[25] = 30 mg/l, culture diluted 1/1000 in Tyrode
[26] = 30 mg/l, culture diluted 1/10000 in Tyrode
[27] = 60 mg/l, culture diluted 1/1000 in Tyrode
[28] = 60 mg/l, culture diluted 1/10000 in Tyrode
[29] = 100 mg/l, culture diluted 1/1000 in Tyrode
[30] = 100 mg/l, culture diluted 1/10000 in Tyrode

CCCCCCCCCCCC[N+](CCO)(CCO)Cc1ccccc1.CCC[CH2][Sn-]([Cl])([Cl])([CH2]CCC)[CH2]CCC [Example 5, Dihydroxyethyl-benzyl-lauryl / Tributyldichloro]
MIC against bacteria, strain A [1]: 100 µg/mL
MIC against bacteria, strain B [2]: 100 µg/mL
MIC against bacteria, strain C [3]: 100 µg/mL
MIC against bacteria, strain D [4]: 100 µg/mL
MIC against bacteria, strain E [5]: 100 µg/mL
MIC against bacteria, strain F [6]: 100 µg/mL
Growth (destruction of a mixed culture of bacteria) [7, 21]: +
Growth (destruction of a mixed culture of bacteria) [7, 22]: +
Growth (destruction of a mixed culture of bacteria) [7, 23]: +
Growth (destruction of a mixed culture of bacteria) [7, 24]: +
Growth (destruction of a mixed culture of bacteria) [7, 25]: +
Growth (destruction of a mixed culture of bacteria) [7, 26]: +
Growth (destruction of a mixed culture of bacteria) [7, 27]: +
Growth (destruction of a mixed culture of bacteria) [7, 28]: +
Growth (destruction of a mixed culture of bacteria) [7, 29]: +
Growth (destruction of a mixed culture of bacteria) [7, 30]: (+) (growth less than that of control (>10 colonies), slight destruction)
MIC against fungi, strain K [8]: 5 µg/mL
MIC against fungi, strain L [9]: 5 µg/mL
MIC against fungi, strain M [10]: 5 µg/mL
MIC against fungi, strain N [11]: 5 µg/mL
MIC against fungi, strain O [12]: 2 µg/mL
MIC against fungi, strain P [13]: 5 µg/mL
MIC against fungi, strain Q [14]: 5 µg/mL
MIC against fungi, strain R [15]: 2 µg/mL
MIC against fungi, strain S [16]: 2 µg/mL
Growth on the agar (algae-destroying action) [17]: --
Growth in the medium (growth inhibition) [17]: --
Destruction, 5 mg/liter [18]: yes
MIC [19]: 0.5 µg/mL
Action against Artemia salina ([20]; 0,5 mg/l, 6 hours): 1-2
Action against Artemia salina ([20]; 0,5 mg/l, 24 hours): 2-3
Action against Artemia salina ([20]; 0,5 mg/l, 48 hours): 3
Action against Artemia salina ([20]; 0,25 mg/l, 6 hours): 0-1
Action against Artemia salina ([20]; 0,25 mg/l, 24 hours): 2
Action against Artemia salina ([20]; 0,25 mg/l, 48 hours): 2-3
Action against Artemia salina ([20]; 1 mg/l, 6 hours): 2
Action against Artemia salina ([20]; 1 mg/l, 24 hours): 3
Action against Artemia salina ([20]; 1 mg/l, 48 hours): 3
Action against Artemia salina ([20]; 2,5 mg/l, 6 hours): 2-3
Action against Artemia salina ([20]; 2,5 mg/l, 24 hours): 3
Action against Artemia salina ([20]; 2,5 mg/l, 48 hours): 3

CCCCCCCCCCCCCCCC[n+]1ccccc1.CCC[CH2][Sn-]([Cl])([Cl])([CH2]CCC)[CH2]CCC [Example 7, Pyridine-Nhexadecyl / Tributyldichloro]
MIC against bacteria, strain A [1]: 100 µg/mL
MIC against bacteria, strain B [2]: 100 µg/mL
MIC against bacteria, strain C [3]: 100 µg/mL
MIC against bacteria, strain D [4]: 100 µg/mL
MIC against bacteria, strain E [5]: 100 µg/mL
MIC against bacteria, strain F [6]: 100 µg/mL
Growth (destruction of a mixed culture of bacteria) [7, 21]: +
Growth (destruction of a mixed culture of bacteria) [7, 22]: +
Growth (destruction of a mixed culture of bacteria) [7, 23]: +
Growth (destruction of a mixed culture of bacteria) [7, 24]: (+) (growth less than that of control (>10 colonies), slight destruction)
Growth (destruction of a mixed culture of bacteria) [7, 25]: (+) (growth less than that of control (>10 colonies), slight destruction)
Growth (destruction of a mixed culture of bacteria) [7, 26]: (-) (slight growth (1-10 colonies))
Growth (destruction of a mixed culture of bacteria) [7, 27]: -
Growth (destruction of a mixed culture of bacteria) [7, 28]: -
Growth (destruction of a mixed culture of bacteria) [7, 29]: -
Growth (destruction of a mixed culture of bacteria) [7, 30]: -
MIC against fungi, strain K [8]: 2 µg/mL
MIC against fungi, strain L [9]: 10 µg/mL
MIC against fungi, strain M [10]: 10 µg/mL
MIC against fungi, strain N [11]: 5 µg/mL
MIC against fungi, strain O [12]: 2 µg/mL
MIC against fungi, strain P [13]: 5 µg/mL
MIC against fungi, strain Q [14]: 5 µg/mL
MIC against fungi, strain R [15]: 2 µg/mL
MIC against fungi, strain S [16]: 2 µg/mL
Growth on the agar (algae-destroying action) [17]: --
Growth in the medium (growth inhibition) [17]: --
Destruction, 5 mg/liter [18]: yes
MIC [19]: 0.5 µg/mL
Action against Artemia salina ([20]; 0,5 mg/l, 6 hours): 1-2
Action against Artemia salina ([20]; 0,5 mg/l, 24 hours): 2
Action against Artemia salina ([20]; 0,5 mg/l, 48 hours): 3
Action against Artemia salina ([20]; 0,25 mg/l, 6 hours): 0-1
Action against Artemia salina ([20]; 0,25 mg/l, 24 hours): 2
Action against Artemia salina ([20]; 0,25 mg/l, 48 hours): 2-3
Action against Artemia salina ([20]; 1 mg/l, 6 hours): 2
Action against Artemia salina ([20]; 1 mg/l, 24 hours): 3
Action against Artemia salina ([20]; 1 mg/l, 48 hours): 3
Action against Artemia salina ([20]; 2,5 mg/l, 6 hours): 2-3
Action against Artemia salina ([20]; 2,5 mg/l, 24 hours): 3
Action against Artemia salina ([20]; 2,5 mg/l, 48 hours): 3
